From patent publication US20240383856A1 (Zedira GmbH, priority 2021, published 2024)

Experiments:
[1] = Caco-2 permeability assay (CacoReady kit); assay type: in vitro ADME; conditions: human, Caco-2, Caco-2 barrier, CacoReady kit; above 1×10^−6 cm/s classified as permeable
Outline: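 Caco-2 monolayer barrier, commercial ready-to-use kit, manufacturer protocol. Read-out: Papp.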

[2] = logD by shake flask method (octanol / PBS pH 7.4, HPLC); assay type: physicochemical; conditions: octanol / PBS pH 7.4, shake flask
Outline: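 LogD obtained by HPLC measurement of how the compound distributes between PBS (pH 7.4) and octanol in a shake-flask experiment.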

[3] = biological target: T1, recombinant human transglutaminase 2 (Homo sapiens, UniProt P21980); test: Transglutaminase assay (DCC-assay): incorporation of dansylcadaverine into dimethylcasein; assay type: biochemical; conditions: recombinant human TG2 10 nM; dansylcadaverine incorporation into dimethylcasein; read-out: IC50 TG2
T1 construct: purchased Zedira T022
T1 sequence (P21980 1-687): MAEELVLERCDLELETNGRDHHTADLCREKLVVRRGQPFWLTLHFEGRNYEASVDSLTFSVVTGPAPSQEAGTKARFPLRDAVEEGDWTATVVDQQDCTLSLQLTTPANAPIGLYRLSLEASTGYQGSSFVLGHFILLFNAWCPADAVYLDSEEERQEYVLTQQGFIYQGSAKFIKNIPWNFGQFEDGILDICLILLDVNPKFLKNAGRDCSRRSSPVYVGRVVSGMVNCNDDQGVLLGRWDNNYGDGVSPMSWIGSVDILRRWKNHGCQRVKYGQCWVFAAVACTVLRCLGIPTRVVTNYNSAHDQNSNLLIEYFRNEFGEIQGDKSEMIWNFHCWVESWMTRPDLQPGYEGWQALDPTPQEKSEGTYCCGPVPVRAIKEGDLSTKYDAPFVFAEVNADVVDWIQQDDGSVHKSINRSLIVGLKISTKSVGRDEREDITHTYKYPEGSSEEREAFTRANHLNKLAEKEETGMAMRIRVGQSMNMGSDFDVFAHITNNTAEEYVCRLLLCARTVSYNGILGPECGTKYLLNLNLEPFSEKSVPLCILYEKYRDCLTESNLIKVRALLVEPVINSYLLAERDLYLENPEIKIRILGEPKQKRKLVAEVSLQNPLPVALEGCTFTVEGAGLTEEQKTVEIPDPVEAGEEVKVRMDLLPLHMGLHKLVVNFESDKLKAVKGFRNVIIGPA
Outline: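 IC50 is the inhibitor level that blocks 50% of initial activity. Activity is the fluorescence slope (λex 330, λem 500 nm) between 20 and 30 min of a 37 °C run, relative to a 2% DMSO control. The enzyme is recombinant human tissue transglutaminase, 10 nM final, tested against a 1:2 inhibitor dilution series in a pH 8.0 mix with 10 mM CaCl2, 10 mM glutathione, 16.7 µM dansylcadaverine and 4 µM N,N-dimethylcasein.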

Papp [1] | logD [2] | IC50 [3] | Structure (SMILES)
1 to 10 ×10⁻⁶ cm/s | 1 to 3 | 40 to 400 nM | CNC(=O)C(=O)CC[C@H](NC(=O)c1cc(Cl)sc1Cl)C(=O)Nc1cccn(CC(=O)N[C@H]2C[C@H]3CC[C@]2(C)C3(C)C)c1=O [II-160, (S)-2-(2,5-dichlorothiophene-3-carboxamido)-N6-methyl-5-oxo-N1-(2-oxo-1-(2-oxo-2-((1R,2S,4R)-1,7,7-trimethylbicyclo[2.2.1]heptan-2-ylamino)ethyl)-1,2-dihydropyridin-3-yl)hexanediamide]
< 1 ×10⁻⁶ cm/s | < 1 | 40 to 400 nM | CNC(=O)C(=O)CC[C@H](NC(=O)c1snnc1C)C(=O)Nc1cccn(CC(=O)N[C@H]2C[C@H]3CC[C@]2(C)C3(C)C)c1=O [II-161, (S)-N1-methyl-5-(4-methyl-1,2,3-thiadiazole-5-carboxamido)-2-oxo-N6-(2-oxo-1-(2-oxo-2-((1R,2S,4R)-1,7,7-trimethylbicyclo[2.2.1]heptan-2-ylamino)ethyl)-1,2-dihydropyridin-3-yl)hexanediamide]
< 1 ×10⁻⁶ cm/s | < 1 | 40 to 400 nM | CNC(=O)C(=O)CC[C@H](NC(=O)c1cnnn1C)C(=O)Nc1cccn(CC(=O)N[C@H]2C[C@H]3CC[C@]2(C)C3(C)C)c1=O [II-162, (S)-N1-methyl-5-(1-methyl-1H-1,2,3-triazole-5-carboxamido)-2-oxo-N6-(2-oxo-1-(2-oxo-2-((1R,2S,4R)-1,7,7-trimethylbicyclo[2.2.1]heptan-2-ylamino)ethyl)-1,2-dihydropyridin-3-yl)hexanediamide]
< 1 ×10⁻⁶ cm/s | < 1 | 40 to 400 nM | CNC(=O)C(=O)CC[C@H](NC(=O)c1ccnn1C)C(=O)Nc1cccn(CC(=O)N[C@H]2C[C@H]3CC[C@]2(C)C3(C)C)c1=O [II-163, (S)-N1-methyl-5-(1-methyl-1H-pyrazole-5-carboxamido)-2-oxo-N6-(2-oxo-1-(2-oxo-2-((1R,2S,4R)-1,7,7-trimethylbicyclo[2.2.1]heptan-2-ylamino)ethyl)-1,2-dihydropyridin-3-yl)hexanediamide]
1 to 10 ×10⁻⁶ cm/s | 3 to 5 | 400 to 2500 nM | CNC(=O)C(=O)CC[C@H](NC(=O)c1c[nH]cc1C(C)(C)C)C(=O)Nc1cccn(CCC23CC4CC(CC(C4)C2)C3)c1=O [II-164]
1 to 10 ×10⁻⁶ cm/s | 3 to 5 | 400 to 2500 nM | CNC(=O)C(=O)CC[C@H](NC(=O)c1cc(C#N)cn1C)C(=O)Nc1cccn(CCCC23CC4CC(CC(C4)C2)C3)c1=O [II-165]
1 to 10 ×10⁻⁶ cm/s | 1 to 3 | 400 to 2500 nM | CNC(=O)C(=O)CC[C@H](NC(=O)c1ncc(OC)o1)C(=O)Nc1cccn(CCC(=O)NC2C3CC4CC(C3)CC2C4)c1=O (stereo partly drawn) [II-166, (S)-N1-(1-(3-(2-adamantylamino)-3-oxopropyl)-2-oxo-1,2-dihydropyridin-3-yl)-2-(5-methoxyoxazole-2-carboxamido)-N6-methyl-5-oxohexanediamide]
1 to 10 ×10⁻⁶ cm/s | < 1 | < 40 nM | CNC(=O)C(=O)CC[C@H](NC(=O)c1oc2ccccc2c1C)C(=O)Nc1cccn(CC(=O)NC23CC(C2)C3)c1=O [II-167, (S)-N1-(1-(2-(bicyclo[1.1.1]pentan-1-ylamino)-2-oxoethyl)-2-oxo-1,2-dihydropyridin-3-yl)-N6-methyl-2-(3-methylbenzofuran-2-carboxamido)-5-oxohexanediamide]
< 1 ×10⁻⁶ cm/s | < 1 | 40 to 400 nM | CNC(=O)C(=O)CC[C@H](NC(=O)c1coc(C(C)=O)n1)C(=O)Nc1cccn(CC(=O)NC23CC(C2)C3)c1=O [II-168, (S)-2-(2-acetyloxazole-4-carboxamido)-N1-(1-(2-(bicyclo[1.1.1]pentan-1-ylamino)-2-oxoethyl)-2-oxo-1,2-dihydropyridin-3-yl)-N6-methyl-5-oxohexanediamide]

Second part, the molecule before the results:

Structure (SMILES) | Papp [1] | logD [2] | IC50 [3]
CNC(=O)C(=O)CC[C@H](NC(=O)c1ccnn1C)C(=O)Nc1cccn(CC(=O)N[C@@H]2C[C@H]3CC[C@@H]2C3)c1=O [II-153, (S)-N1-(1-(2-((1R,2R,4S)-bicyclo[2.2.1]heptan-2-ylamino)-2-oxoethyl)-2-oxo-1,2-dihydropyridin-3-yl)-N6-methyl-2-(1-methyl-1H-pyrazole-5-carboxamido)-5-oxohexanediamide] | < 1 ×10⁻⁶ cm/s | < 1 | 400 to 2500 nM
CNC(=O)C(=O)CC[C@H](NC(=O)c1sc(C(F)(F)F)nc1C)C(=O)Nc1cccn(CC(=O)N[C@@H]2C[C@@H]3CC[C@H]2C3)c1=O [II-154, (S)-N1-(1-(2-((1S,2R,4R)-bicyclo[2.2.1]heptan-2-ylamino)-2-oxoethyl)-2-oxo-1,2-dihydropyridin-3-yl)-N6-methyl-2-(4-methyl-2-(trifluoromethyl)thiazole-5-carboxamido)-5-oxohexanediamide] | 1 to 10 ×10⁻⁶ cm/s | 1 to 3 | 40 to 400 nM
CNC(=O)C(=O)CC[C@H](NC(=O)c1cc(Cl)sc1Cl)C(=O)Nc1cccn(CC(=O)N[C@@H]2C[C@@H]3CC[C@H]2C3)c1=O [II-155, (S)-N1-(1-(2-((1S,2R,4R)-bicyclo[2.2.1]heptan-2-ylamino)-2-oxoethyl)-2-oxo-1,2-dihydropyridin-3-yl)-2-(2,5-dichlorothiophene-3-carboxamido)-N6-methyl-5-oxohexanediamide] | 1 to 10 ×10⁻⁶ cm/s | 1 to 3 | < 40 nM
CNC(=O)C(=O)CC[C@H](NC(=O)c1snnc1C)C(=O)Nc1cccn(CC(=O)N[C@@H]2C[C@@H]3CC[C@H]2C3)c1=O [II-156, (S)-N1-(1-(2-((1S,2R,4R)-bicyclo[2.2.1]heptan-2-ylamino)-2-oxoethyl)-2-oxo-1,2-dihydropyridin-3-yl)-N6-methyl-2-(4-methyl-1,2,3-thiadiazole-5-carboxamido)-5-oxohexanediamide] | < 1 ×10⁻⁶ cm/s | < 1 | 40 to 400 nM
CNC(=O)C(=O)CC[C@H](NC(=O)c1cnnn1C)C(=O)Nc1cccn(CC(=O)N[C@@H]2C[C@@H]3CC[C@H]2C3)c1=O [II-157, (S)-N1-(1-(2-((1S,2R,4R)-bicyclo[2.2.1]heptan-2-ylamino)-2-oxoethyl)-2-oxo-1,2-dihydropyridin-3-yl)-N6-methyl-2-(1-methyl-1H-1,2,3-triazole-5-carboxamido)-5-oxohexanediamide] | < 1 ×10⁻⁶ cm/s | < 1 | 40 to 400 nM
CNC(=O)C(=O)CC[C@H](NC(=O)c1ccnn1C)C(=O)Nc1cccn(CC(=O)N[C@@H]2C[C@@H]3CC[C@H]2C3)c1=O [II-158, (S)-N1-(1-(2-((1S,2R,4R)-bicyclo[2.2.1]heptan-2-ylamino)-2-oxoethyl)-2-oxo-1,2-dihydropyridin-3-yl)-N6-methyl-2-(1-methyl-1H-pyrazole-5-carboxamido)-5-oxohexanediamide] | < 1 ×10⁻⁶ cm/s | < 1 | 40 to 400 nM
CNC(=O)C(=O)CC[C@H](NC(=O)c1sc(C(F)(F)F)nc1C)C(=O)Nc1cccn(CC(=O)N[C@H]2C[C@H]3CC[C@]2(C)C3(C)C)c1=O [II-159, (S)-N1-methyl-5-(4-methyl-2-(trifluoromethyl)thiazole-5-carboxamido)-2-oxo-N6-(2-oxo-1-(2-oxo-2-((1R,2S,4R)-1,7,7-trimethylbicyclo[2.2.1]heptan-2-ylamino)ethyl)-1,2-dihydropyridin-3-yl)hexanediamide] | 1 to 10 ×10⁻⁶ cm/s | 1 to 3 | 40 to 400 nM
